Columns and labels:
P23H opsin = molecular target: T1, P23H opsin (Mus musculus, UniProt P15409, P23H); experiment: Immunoblot of P23H opsin glycosylation in NIH3T3 cells; type: cell-based; design: key to Improved glycosylation: n = no; y = yes; conditions: for Improved glycosylation: P23H opsin; for glycosylation of P23H opsin (in words): immunoblot, PNGaseF, FIG. 3A-D
T1 construct: expressed in transfected cells
Description: NIH3T3-(P23H-opsin/GFP) or NIH3T3-(WT-opsin/GFP) cells were seeded in a 48-well plate (Corning Costar) at 3.2×10^5 cells per well and incubated at 37° C. with 5% CO2 for 2 h. One hundred-μL of assay medium containing a compound at 5× its final concentration was added to each well. The plate was gently shaken for 5 s before further incubation at 37° C. with 5% CO2 for 24 h. The assay medium then was aspirated, and cells were lysed with 100 μL per well PBS containing 0.1% Triton X-100 and complete protease inhibitor cocktail (Roche, Basel, Switzerland) followed by sonication for 3 s. Protein concentrations were determined with the Bradford assay. For PNGase F catalyzed deglycosylation, 3 μL of PNGase F (1,500 U, NEB) was added to the cell lysate and the mixture was incubated at room temperature for 1 h before immunoblotting. For NIH3T3-(P23H-opsin/GFP) cells, 15 μg of total protein were loaded per well onto an SDS-polyacrylamide gel; whereas for NIH3T3-(WT-opsin/GFP) cells, 10 μg of total protein was loaded per well. Opsin protein was immunostained with 0.2 μg mL^−1 horseradish peroxidase-conjugated 1D4 anti-rhodopsin antibody. Band intensities were measured with ImageJ software (http://imagej.nih.gov/ij/; National the Institutes of Health, Bethesda, MD, USA) and normalized to a glyceraldehyde 3-phosphate dehydrogenase (GAPDH) loading control.

bovine opsin = molecular target: T2, bovine opsin (Bos taurus, UniProt P02699); experiment: Ligand-opsin binding by Trp fluorescence quenching in ROS disc membranes; conditions: for EC50: opsin in disc membranes, read-out: EC50 of Trp fluorescence quenching at 330 nm
T2 construct: ROS membranes were isolated from bovine retinas under dim red light; from tissue; host or cells: bovine retina rod outer segment (ROS) membranes, bleached with hydroxylamine
T2 sequence (P02699 whole entry): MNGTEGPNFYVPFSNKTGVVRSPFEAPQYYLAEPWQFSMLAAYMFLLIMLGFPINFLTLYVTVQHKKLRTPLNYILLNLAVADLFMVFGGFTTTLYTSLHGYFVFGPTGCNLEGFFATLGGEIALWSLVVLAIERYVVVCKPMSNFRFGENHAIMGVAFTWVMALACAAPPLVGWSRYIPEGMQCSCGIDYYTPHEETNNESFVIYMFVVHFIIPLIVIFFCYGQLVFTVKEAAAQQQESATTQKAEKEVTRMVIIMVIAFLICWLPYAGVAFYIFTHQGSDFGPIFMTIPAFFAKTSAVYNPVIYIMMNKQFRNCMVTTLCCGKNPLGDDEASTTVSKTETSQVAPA
Description: ROS membranes were isolated from bovine retinas under dim red light. To remove membrane associated proteins, ROS membranes were washed with a hypotonic buffer composed of 5 mM bis-tris propane (BTP) and 1 mM EDTA, pH 7.5, followed by gentle homogenization with subsequent centrifugation at 25,000 g for 30 min. This procedure was repeated four times. The final membrane pellet was suspended in 10 mM sodium phosphate buffer, pH 7.0, and 50 mM hydroxylamine to a 3 mg mL^−1 concentration of rhodopsin, placed on ice and illuminated with a 150 Watt bulb for 30 min. Membranes were pelleted by centrifugation at 16,000 g for 5 min and then washed four times with 10 mM sodium phosphate buffer, pH 7.0, and 2% bovine serum albumin followed by 4 washes with 10 mM sodium phosphate buffer, pH 7.0, and 2 washes with 20 mM BTP, pH 7.5, and 100 mM NaCl. The concentration of opsin was measured with a UV-visible spectrophotometer and quantified using the absorption coefficient ε280 nm=81,200 M^−1 cm^−1.
Emission spectra were recorded with a Perkin Elmer L55 Luminescence Spectrophotometer at 20° C. between 300 and 450 nm after excitation at 295 nm, with excitation and emission slit bands set at 5 and 10 nm, respectively. Changes in Trp fluorescence (ΔF/F0; where ΔF is the difference between the initial Trp fluorescence recorded at 330 nm (F0) and Trp fluorescence recorded at 330 nm at a specified YC-001 concentration) were plotted as a function of the ligand concentration. Binding curves were fitted by the Hill function using Origin software for each compound and the EC50 was calculated. All experimental data were corrected for background and self-absorption of excitation and emission light (inner filter effect).

Row | Improved glycosylation (P23H opsin) | glycosylation of P23H opsin (in words) (P23H opsin) | effect on Trp fluorescence (bovine opsin; FIG. 3G) | Compound | EC50 (bovine opsin) [µM]
1 | n | does not affect the glycosylation | didn't affect Trp fluorescence | O=C(CCCCCN1C(=O)c2cccc3cccc(c23)C1=O)NO [Scriptaid, reference compound] | –
2 | y | improvement of glycosylation | – | CC1=C(/C=C/C(C)=C\C=C\C(C)=C\C=O)C(C)(C)CCC1 [9-cis-retinal, reference compound] | 1.2 ± 0.1

Row | Compound | Improved glycosylation (P23H opsin) | glycosylation of P23H opsin (in words) (P23H opsin) | effect on Trp fluorescence (bovine opsin; FIG. 3G) | EC50 (bovine opsin) [µM]
3 | O=C1OCC(c2ccc(Cl)s2)=C1c1cccs1 [YC-001] | y | improvement of glycosylation | – | 0.98 ± 0.05
